This is an account of results in patent US20210238139A1, “MODULATORS OF TRYPTOPHAN CATABOLISM” (E-Therapeutics PLC, priority 2018, published 2021).

In general, IC50 refers to the concentration that inhibits the measured activity by half.

Where only a bound is given, the exact number is not on record here.

The first test deals with SK-OV-3 cells. The test can be described thus: Effect of compounds on tryptophan catabolism in SK-OV-3 cell line (inhibition of kynurenine production, LC-MS/MS). The settings on record: Homo sapiens, SK-OV-3, 24 h, SK-OV-3 cell line, 24 h incubation, kynurenine in supernatant by LC-MS/MS; read-out: IC50 Ranges (ic50 values for inhibition of Kynurenine production). It is filed as cell-based. As for the experimental part: SK-OV-3 cells are seeded in 96-well plates in McCoy's 5A medium supplemented with 10% FBS and incubated overnight at 37° C., 5% CO2, 95% humidity. The […] growth medium is replaced with DMEM F-12 medium supplemented with 6 mg/mL L-tryptophan. Compounds are added to the wells and incubated for 24 h at 37° C., 5% CO2, 95% humidity. Compounds are tested at 8 consecutive 3-fold dilutions starting from 30 μM in duplicate. At the end of incubation, concentration of kynurenine in cell supernatants is […] determined by LC-MS/MS. In parallel, cell viability is assessed by measurement of ATP using CellTiter Glo assay (Promega), according to manufacturer's protocol. Inhibition of Kyn production is calculated using the following formula: […] IC50 ranges for compounds of the invention are presented in Table 2, whereby the IC50 ranges are as follows: • A: […]
Regarding `O=C(NCCc1ccccc1)N(Cc1cccs1)C1CCCC1` [Compound 1, 1-cyclopentyl-3-(2-phenylethyl)-1-(2-thienylmethyl)urea], the 50% inhibitory concentration (IC50) lay in the range of 1000 to 5000 nM. Same read-out and setting: as for `CC(c1cccc(C#N)c1)N(C(=O)Nc1ccc(F)cc1)C1CCC1` (racemic) [Compound 189, 1-[1-(3-cyanophenyl)ethyl]-1-cyclobutyl-3-(4-fluorophenyl)urea], the figure is 100 to 500 nM. Take `N#CCc1ccc(NC(=O)N(Cc2cccs2)C2CCCC2)cc1` [Compound 6, 3-[4-(cyanomethyl)phenyl]-1-cyclopentyl-1-(2-thienylmethyl)urea]: the IC50 lay in the range of 1000 to 5000 nM. For the compound `C#Cc1ccc(NC(=O)N(Cc2ccc(C)o2)C2COC2)cc1` [Compound 236, 3-(4-ethynylphenyl)-1-[(5-methyl-2-furyl)methyl]-1-(oxetan-3-yl)urea], the IC50 lay in the range of 500 to 1000 nM. The same measure, in the same setting: as for `N#Cc1cccc(CN(C(=O)Nc2ccc(F)cc2)C2CCCC2)n1` [Compound 126, 1-[(6-cyano-2-pyridyl)methyl]-1-cyclopentyl-3-(4-fluorophenyl)urea], the figure is 500 to 1000 nM; as for `Cc1ccc(CN(C(=O)Nc2ccc(Cl)cc2)c2nc3ccccc3s2)o1` [Compound 300, 1-(1,3-benzothiazol-2-yl)-3-(4-chlorophenyl)-1-[(5-methyl-2-furyl)methyl]urea], 1000 to 5000 nM; as for `O=C(Nc1ccccc1)N(Cc1ccccn1)C1CCCC1` [Compound 67, 1-cyclopentyl-3-phenyl-1-(2-pyridylmethyl)urea], 1000 to 5000 nM. The same measure, in the same setting: as for `Cc1ccc(CN(C(=O)Nc2ccc(F)cc2)c2ncco2)o1` [Compound 180, 3-(4-fluorophenyl)-1-[(5-methyl-2-furyl)methyl]-1-oxazol-2-yl-urea], the figure is over 5000 nM; as for `CCN(Cc1ccc(C)o1)C(=O)Nc1ccccc1` [Compound 165, 1-ethyl-1-[(5-methyl-2-furyl)methyl]-3-phenyl-urea], 1000 to 5000 nM; as for `Cc1ccc(CN(C(=O)Nc2nc3ccccc3s2)C2CCCC2)o1` [Compound 134, 3-(1,3-benzothiazol-2-yl)-1-cyclopentyl-1-[(5-methyl-2-furyl)methyl]urea], 500 to 1000 nM. In the case of `Cc1ccc(CN(C(=O)Nc2ccc(F)c(F)c2)C2CCCC2)o1` [Compound 31, 1-cyclopentyl-3-(3,4-difluorophenyl)-1-[(5-methyl-2-furyl)methyl]urea], the IC50 lay within 100 to 500 nM. For `Cn1ncc(CN(C(=O)Nc2ccccc2)C2CCCC2)c1Cl` [Compound 41, 1-[(5-chloro-1-methyl-pyrazol-4-yl)methyl]-1-cyclopentyl-3-phenyl-urea], the half-maximal inhibitory concentration (IC50) was 1000 to 5000 nM.

Regarding `O=C(Nc1ccc(F)cc1)N(Cc1cnoc1)C1CCCC1` [Compound 62, 1-cyclopentyl-3-(4-fluorophenyl)-1-(isoxazol-4-ylmethyl)urea], the IC50 is over 5000 nM. Same read-out and setting: with `O=C(Nc1ccc2c(c1)CCC2)N(Cc1cccs1)C1CCCC1` [Compound 9, 1-cyclopentyl-3-indan-5-yl-1-(2-thienylmethyl)urea] the figure was 1000 to 5000 nM; with `Cc1ccc(CN(C(=O)Nc2ccc(-c3cnn(C(C)(C)CO)c3)cc2)C2CCCC2)o1` [Compound 101, 1-cyclopentyl-3-[4-[1-(2-hydroxy-1,1-dimethyl-ethyl)pyrazol-4-yl]phenyl]-1-[(5-methyl-2-furyl)methyl]urea], over 5000 nM. Consider `Cc1ccc(CN(C(=O)Nc2ccc(Cl)cc2)c2c(C)noc2C)o1` [Compound 238, 3-(4-chlorophenyl)-1-(3,5-dimethylisoxazol-4-yl)-1-[(5-methyl-2-furyl)methyl]urea], for which the IC50 was 100 to 500 nM. Same read-out and setting: with `N#Cc1ccc(NC(=O)N(Cc2nc3ccccc3s2)C2CCC2)cc1` [Compound 229, 1-(1,3-benzothiazol-2-ylmethyl)-3-(4-cyanophenyl)-1-cyclobutyl-urea] the figure was 100 to 500 nM; with `O=C(Nc1ccccc1)N(Cc1ccco1)C1CCCC1` [Compound 28, 1-cyclopentyl-1-(2-furylmethyl)-3-phenyl-urea], 500 to 1000 nM; with `Cc1ccc(CN(C(=O)Nc2ccc(-n3cc(CO)nn3)cc2)C2CCCC2)o1` [Compound 164, 1-cyclopentyl-3-[4-[4-(hydroxymethyl)triazol-1-yl]phenyl]-1-[(5-methyl-2-furyl)methyl]urea], under 100 nM. Still for that read-out and setting: as for `N#Cc1cccc(CN(C(=O)Nc2ccccc2)C2CCCC2)n1` [Compound 125, 1-[(6-cyano-2-pyridyl)methyl]-1-cyclopentyl-3-phenyl-urea], the figure is 1000 to 5000 nM; as for `COc1ccc(NC(=O)N(Cc2cccs2)C2CCCC2)c(OC)c1` [Compound 18, 1-cyclopentyl-3-(2,4-dimethoxyphenyl)-1-(2-thienylmethyl)urea], 1000 to 5000 nM; as for `COc1cc(NC(=O)N(Cc2ccc(C)o2)C2CCCC2)ccc1C#N` [Compound 205], 100 to 500 nM.

For the compound `CCCN(Cc1ccc(C)o1)C(=O)Nc1ccccc1` [Compound 166, 1-[(5-methyl-2-furyl)methyl]-3-phenyl-1-propyl-urea], the concentration for half-maximal inhibition (IC50) fell in the range of 500 to 1000 nM. In the case of `O=C(Nc1ccncc1)N(Cc1cccs1)C1CCCC1` [Compound 11, 1-cyclopentyl-3-(4-pyridyl)-1-(2-thienylmethyl)urea], the IC50 is 1000 to 5000 nM. Turning to `Cc1ccc(C(C)N(C(=O)Nc2ccc(F)cc2)C2CCCC2)o1` (racemic) [Compound 191, 1-cyclopentyl-3-(4-fluorophenyl)-1-[1-(5-methyl-2-furyl)ethyl]urea], the half-maximal inhibitory concentration (IC50) is 500 to 1000 nM. As for `Cc1ccc(CN(C(=O)Nc2ccc(Cl)cc2)C2CCC(F)(F)C2)o1` (stereo not shown) [Compound 245, 3-(4-chlorophenyl)-1-(3,3-difluorocyclopentyl)-1-[(5-methyl-2-furyl)methyl]urea], the concentration for half-maximal inhibition (IC50) fell in the range of 100 to 500 nM. On the same count and under the same terms, with `Cc1ccc(N(Cc2cccs2)C(=O)NC2CCCCC2)cc1` [Compound 201, 3-cyclohexyl-1-(p-tolyl)-1-(2-thienylmethyl) urea] the figure was 1000 to 5000 nM; with `C#Cc1ccc(NC(=O)N(Cc2ccc(C)o2)C2CCOCC2)cc1` [Compound 259, 3-(4-ethynylphenyl)-1-[(5-methyl-2-furyl)methyl]-1-tetrahydropyran-4-yl-urea], 100 to 500 nM. Consider `N#Cc1ccc(NC(=O)N(Cc2ccn3ccnc3n2)C2CCC2)cc1` [Compound 274, 3-(4-cyanophenyl)-1-cyclobutyl-1-(imidazo[1,2-a]pyrimidin-7-ylmethyl)urea], for which the IC50 is 1000 to 5000 nM.

On to `CCc1ccc(NC(=O)N(Cc2ccc(C)s2)C2CCCC2)cc1` [Compound 25, 1-cyclopentyl-3-(4-ethylphenyl)-1-[(5-methyl-2-thienyl)methyl]urea], for which the half-maximal inhibitory concentration (IC50) was in the range of 100 to 500 nM. Consider `O=C(Nc1ccc(F)cc1)N(Cc1ccccn1)C1CCCC1` [Compound 68, 1-cyclopentyl-3-(4-fluorophenyl)-1-(2-pyridylmethyl)urea], for which the concentration for half-maximal inhibition (IC50) fell in the range of 1000 to 5000 nM. On the same count and under the same terms, as for `N#Cc1ccc(NC(=O)N(Cc2cn3ccccc3n2)C2CCC2)cc1` [Compound 210, 3-(4-cyanophenyl)-1-cyclobutyl-1-(imidazo[1,2-a]pyridin-2-ylmethyl)urea], the figure is 1000 to 5000 nM; as for `CC1(CN(C(=O)Nc2ccc(F)cc2)C2CCCC2)CCNCC1` [Compound 86, 1-cyclopentyl-3-(4-fluorophenyl)-1-[(4-methyl-4-piperidyl)methyl]urea], 1000 to 5000 nM. For `N#Cc1cc(CN(C(=O)NCCc2ccccc2)C2CCCC2)ccc1F` [Compound 51, 1-[(3-cyano-4-fluoro-phenyl)methyl]-1-cyclopentyl-3-(2-phenylethyl)urea], the IC50 is over 5000 nM. Still for that read-out and setting: with `Cc1ccc(CN(C(=O)Nc2ccc(C#N)nc2)C2CCCC2)o1` [Compound 124, 3-(6-cyano-3-pyridyl)-1-cyclopentyl-1-[(5-methyl-2-furyl)methyl]urea] the figure was 100 to 500 nM; with `N#Cc1ccc(NC(=O)N(Cc2ccnc(C(F)(F)F)c2)C2CCC2)cc1` [Compound 152, 3-(4-cyanophenyl)-1-cyclobutyl-1-[[2-(trifluoromethyl)-4-pyridyl]methyl]urea], 100 to 500 nM. Still for that read-out and setting: with `Cc1ccc(CN(C(=O)Nc2ncc(Br)s2)C2CCCC2)o1` [Compound 161, 3-(5-bromothiazol-2-yl)-1-cyclopentyl-1-[(5-methyl-2-furyl)methyl]urea] the figure was under 100 nM; with `Cc1ccc(CN(C(=O)Nc2nc(-c3ccccn3)cs2)C2CCCC2)o1` [Compound 133, 1-cyclopentyl-1-[(5-methyl-2-furyl)methyl]-3-[4-(2-pyridyl)thiazol-2-yl]urea], 100 to 500 nM; with `COc1ccc(NC(=O)N(Cc2ccc(C)o2)C2CCCC2)cc1` [Compound 290, 1-cyclopentyl-3-(4-methoxyphenyl)-1-[(5-methyl-2-furyl)methyl]urea], 100 to 500 nM. Regarding `COc1ccc(CN(C(=O)Nc2ccc(F)cc2)C2CCCC2)cc1C` [Compound 48, 1-cyclopentyl-3-(4-fluorophenyl)-1-[(4-methoxy-3-methyl-phenyl)methyl]urea], the half-maximal inhibitory concentration (IC50) was in the range of 100 to 500 nM. For `O=C(Nc1ccc(Cl)cc1)N(Cc1ccon1)C1CCCC1` [Compound 149, 3-(4-chlorophenyl)-1-cyclopentyl-1-(isoxazol-3-ylmethyl)urea], the IC50 was 500 to 1000 nM.

The same test, now with this note: SK-OV-3 cell line, 24 h incubation, kynurenine in supernatant by LC-MS/MS; read-out: IC50 Ranges (ic50 values for inhibition of Kynurenine production).
In the case of `O=C(Nc1ccccc1)N(Cc1cccs1)C1CCCC1` [Compound 19, 1-cyclopentyl-3-phenyl-1-(2-thienylmethyl)urea], the IC50 is 500 to 1000 nM. Turning to `Cc1ccc(CN(C(=O)Nc2ccc(Cl)cc2)c2cncn2C)o1` [Compound 193, 3-(4-chlorophenyl)-1-[(5-methyl-2-furyl)methyl]-1-(3-methylimidazol-4-yl)urea], the concentration for half-maximal inhibition (IC50) was 500 to 1000 nM.
